# Tests used:
# BJ-derived cell lines = test: GSH depletion assay in BJ-derived cell lines; format: cell-based, human; conditions: BJeLR cells, lethal RSL3 dose
# Description: Bar graph: mean+s.d.; n=3. *, P<0.05.
# 2 million cells were seeded on 10 cm dishes. The next day, cells were treated with compounds to induce GSH depletion followed by harvesting to determine cell number. Two million live cells from each sample were transferred to new tubes, and centrifuged at 1,000 rpm at 4° C. for 5 minutes. The cell pellet was resuspended in 1 mL of PB buffer (10 mM sodium phosphate buffer, 1 mM EDTA, pH 7) and sonicated using 60 Joule energy. The lysate was centrifuged at 13,200 rpm at 4° C. for 10 minutes, and then the cleared lysate was used to determine the amount of GSH in the sample. The QuantiChrome glutathione assay kit (BioAssay Systems, cat # DIGT-250) was used and the product instructions were followed to determine GSH level.
# BJeLR cells = test: Lipid peroxide detection using BODIPY-C11 in BJ-derived cells; format: cell-based, human
# GFP-ALOX5 = GFP-ALOX5 translocation in BJ-derived cell lines; format: cell-based, human
# Description: A cDNA of ALOX5 (GeneBank ID: BC130332.1) was cloned into a pBabe-puro vector to express GFP fused ALOX5 (N-terminal GFP fusion) in cells. The plasmid was transfected into PLAT-GP cells (Cell Biolabs Inc., cat # RV-103, San Diego, Calif.) along with a pVSV-G helper plasmid to produce retrovirus harboring the expression plasmid. 0.2 million target cells (BJeH, BJeHLT, BJeLR or HT-1080 cells) were seeded in 10 cm tissue culture dishes and incubated in the tissue culture incubator for 1 day. A frozen stock of retrovirus solution was thawed at 37° C. for 2 minutes, and polybrene (Sigma, cat. # H9268) was added at a final concentration of 8 μg/mL. Culture medium was replaced with virus/polybrene mix and the culture dish was incubated for two hours with rocking every 30 minutes. After 2 hours, 10 mL of growth media was added to culture dish, and the culture was incubated further for 2 days. Cell lines stably expressing GFP-ALOX5 protein were selected using 1.5 μg/mL puromycin and used for the GFP-ALOX5 translocation assay.
# ALOX5 is one of the six human ALOX genes and plays a critical role in leukotriene synthesis. In the basal state, the ALOX5 protein remains in the nucleus; however, upon activation, it translocates to the nuclear membrane (Chen et al., 2001). […] Second, calcium chelators were not effective in suppressing erastin-induced cell death (Wolpaw et al., 2011).
# ALOX15B and ALOXE3 = test: ALOX15B / ALOXE3 siRNA knockdown and lethal compound sensitivity in HT-1080 cells; format: cell-based, human
# Description: HT-1080 cells were transfected with siRNA pools targeting either ALOX15B or ALOXE3, and then, treated with the indicated RSL compounds in 2-fold dilution series. 24 hours after compound treatment, alamar blue was added to the culture at a final concentration of 10% in growth media to determine cell viability. The percent growth inhibition was calculated from the fluorescence intensity of each well in 384-well assay plates. Data points represent mean of duplicates.
# Small interfering RNA (siRNA) pools targeting ALOX15B and ALOXE3 were obtained from Dharmacon Technologies (Lafayette, Colo.). On the day of reverse-transfection, a cocktail of 1 mL of Opti-MEM (Invitrogen Corp., Carlsbad, Calif.), 6 μL of Lipofectamine RNAiMAX (Invitrogen), and 5 μL of 10 μM siRNA were prepared and transferred to each well of a 6-well plate. The 6-well plate was put in the tissue culture incubator for 20 minutes to allow the formation of transfection mixture. While the complex was forming, HT-1080 cells were trypsinized and the cell number was determined using ViCell (Trypan Blue). 200,000 cells were prepared in 1 mL of growth media with 2× serum, and then, the cell suspension was transferred to each well containing 1 mL of the transfection mix. The 6-well plate was returned to the incubator and the culture grown for 2 days. […]
# [1] = system: BJeH, BJeHLT, BJeLR and DRD cells; format: cell-based; conditions: 0.4 μM RSL3, BJeLR vs BJeHLT cells
smiles,measurement,setting,value
COC(=O)c1ccc([C@@H]2c3[nH]c4ccccc4c3C[C@@H](C(=O)OC)N2C(=O)CCl)cc1 [RSL3],cellular GSH level,BJ-derived cell lines,remained unaffected
same,lipid peroxide generation (BODIPY-C11 fluorescence),BJeLR cells,generation of lipid peroxides
same,GFP-ALOX5 translocation to the nuclear membrane,GFP-ALOX5,caused GFP-ALOX5 translocation to the nuclear membrane
same,effect of ALOX15B knockdown on compound-induced cell death,ALOX15B and ALOXE3,sensitized cells to RSL3-induced cell death
same,effect of ALOXE3 knockdown on compound-induced cell death,ALOX15B and ALOXE3,suppressed
same,selective lethality,[1],exhibited selective lethality in BJeLR cells
